According to ChEMBL document CHEMBL5150005, “Discovery of 5-{4-[(7-Ethyl-6-oxo-5,6-dihydro-1,5-naphthyridin-3-yl)methyl]piperazin-1-yl}-N-methylpyridine-2-carboxamide (AZD5305): A PARP1-DNA Trapper with High Selectivity for PARP1 over PARP2 and Other PARPs” (J Med Chem, 2021):
In brackets after ≈: the same amount, converted by molar mass. Activity calls are given as the source filed them. The rule behind the calls is not given here.

Key:
[1] = Aqueous solubility of the compound at pH 7.4; format: physicochemical; settings: buffer
in vitro [2] = settings: human, liver microsomes
physchem = settings: buffer, pH 7.4
[3] = target: Voltage-gated inwardly rectifying potassium channel KCNH2 (Homo sapiens, UniProt Q12809); experiment: Inhibition of human ERG; format: toxicity
Chain of Voltage-gated inwardly rectifying potassium channel KCNH2 (Q12809 whole entry): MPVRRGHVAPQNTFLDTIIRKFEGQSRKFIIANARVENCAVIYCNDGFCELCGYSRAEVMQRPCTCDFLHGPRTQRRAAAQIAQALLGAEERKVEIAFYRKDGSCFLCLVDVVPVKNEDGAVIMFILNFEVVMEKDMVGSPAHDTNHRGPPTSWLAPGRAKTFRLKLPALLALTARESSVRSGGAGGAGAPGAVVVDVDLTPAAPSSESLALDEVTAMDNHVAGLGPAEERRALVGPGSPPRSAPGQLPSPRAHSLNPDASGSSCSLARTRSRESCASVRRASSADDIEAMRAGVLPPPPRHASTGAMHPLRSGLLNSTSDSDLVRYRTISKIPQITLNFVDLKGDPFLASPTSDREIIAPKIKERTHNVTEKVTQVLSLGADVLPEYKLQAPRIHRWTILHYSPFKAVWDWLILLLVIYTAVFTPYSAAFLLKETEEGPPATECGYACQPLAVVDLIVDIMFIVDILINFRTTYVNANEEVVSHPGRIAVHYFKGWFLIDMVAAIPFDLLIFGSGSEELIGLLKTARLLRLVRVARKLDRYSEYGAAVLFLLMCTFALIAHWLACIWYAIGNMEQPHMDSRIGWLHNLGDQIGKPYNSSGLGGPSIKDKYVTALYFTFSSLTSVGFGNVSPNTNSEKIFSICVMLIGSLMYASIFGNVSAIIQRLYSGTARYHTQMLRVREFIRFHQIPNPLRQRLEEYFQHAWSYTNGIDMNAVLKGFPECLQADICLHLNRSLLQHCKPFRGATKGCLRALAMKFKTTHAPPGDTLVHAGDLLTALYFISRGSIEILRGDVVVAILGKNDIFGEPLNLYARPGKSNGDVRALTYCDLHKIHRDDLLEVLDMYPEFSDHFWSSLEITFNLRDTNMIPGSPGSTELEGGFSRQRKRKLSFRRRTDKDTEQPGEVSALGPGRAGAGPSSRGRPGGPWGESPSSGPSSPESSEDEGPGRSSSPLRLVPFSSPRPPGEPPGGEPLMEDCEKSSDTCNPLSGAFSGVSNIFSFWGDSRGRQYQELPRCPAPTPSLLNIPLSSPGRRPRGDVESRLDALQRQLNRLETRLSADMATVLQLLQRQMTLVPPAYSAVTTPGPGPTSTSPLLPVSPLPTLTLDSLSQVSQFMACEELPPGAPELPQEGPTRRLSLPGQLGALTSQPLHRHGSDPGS

[4] = target: Poly [ADP-ribose] polymerase 2 (Homo sapiens, UniProt Q9UGN5); experiment: Inhibition of human recombinant N-terminal Avi-6His-TEV tagged PARP2 full length expressed in pFastBac expression system incubated for 4 hrs by fluorescence anisotropy binding assay
Chain of Poly [ADP-ribose] polymerase 2 (Q9UGN5 whole entry): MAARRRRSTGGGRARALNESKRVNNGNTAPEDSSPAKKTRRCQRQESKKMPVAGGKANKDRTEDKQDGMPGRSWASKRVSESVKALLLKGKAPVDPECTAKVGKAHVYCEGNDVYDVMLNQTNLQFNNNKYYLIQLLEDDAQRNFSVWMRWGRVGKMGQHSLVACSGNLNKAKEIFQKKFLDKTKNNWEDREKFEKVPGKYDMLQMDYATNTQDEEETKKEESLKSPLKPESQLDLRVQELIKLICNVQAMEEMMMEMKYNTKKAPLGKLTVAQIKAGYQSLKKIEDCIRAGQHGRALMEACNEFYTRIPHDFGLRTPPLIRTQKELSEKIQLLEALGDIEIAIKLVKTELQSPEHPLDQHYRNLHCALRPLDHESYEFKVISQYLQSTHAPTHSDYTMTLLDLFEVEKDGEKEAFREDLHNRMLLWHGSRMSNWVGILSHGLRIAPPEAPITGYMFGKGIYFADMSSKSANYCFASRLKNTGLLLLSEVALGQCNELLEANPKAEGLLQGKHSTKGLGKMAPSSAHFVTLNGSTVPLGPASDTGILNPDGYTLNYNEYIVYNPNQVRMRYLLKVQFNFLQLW

DLD-1 = experiment: Antiproliferative activity against human DLD-1 deficient in BRCA-2 cells measured after 7 days; format: functional, cell-based
in vitro [5] = settings: human, Caco-2, pH 7.4
[6] = target: Poly [ADP-ribose] polymerase 1 (Homo sapiens, UniProt P09874)
Chain of Poly [ADP-ribose] polymerase 1 (P09874 whole entry): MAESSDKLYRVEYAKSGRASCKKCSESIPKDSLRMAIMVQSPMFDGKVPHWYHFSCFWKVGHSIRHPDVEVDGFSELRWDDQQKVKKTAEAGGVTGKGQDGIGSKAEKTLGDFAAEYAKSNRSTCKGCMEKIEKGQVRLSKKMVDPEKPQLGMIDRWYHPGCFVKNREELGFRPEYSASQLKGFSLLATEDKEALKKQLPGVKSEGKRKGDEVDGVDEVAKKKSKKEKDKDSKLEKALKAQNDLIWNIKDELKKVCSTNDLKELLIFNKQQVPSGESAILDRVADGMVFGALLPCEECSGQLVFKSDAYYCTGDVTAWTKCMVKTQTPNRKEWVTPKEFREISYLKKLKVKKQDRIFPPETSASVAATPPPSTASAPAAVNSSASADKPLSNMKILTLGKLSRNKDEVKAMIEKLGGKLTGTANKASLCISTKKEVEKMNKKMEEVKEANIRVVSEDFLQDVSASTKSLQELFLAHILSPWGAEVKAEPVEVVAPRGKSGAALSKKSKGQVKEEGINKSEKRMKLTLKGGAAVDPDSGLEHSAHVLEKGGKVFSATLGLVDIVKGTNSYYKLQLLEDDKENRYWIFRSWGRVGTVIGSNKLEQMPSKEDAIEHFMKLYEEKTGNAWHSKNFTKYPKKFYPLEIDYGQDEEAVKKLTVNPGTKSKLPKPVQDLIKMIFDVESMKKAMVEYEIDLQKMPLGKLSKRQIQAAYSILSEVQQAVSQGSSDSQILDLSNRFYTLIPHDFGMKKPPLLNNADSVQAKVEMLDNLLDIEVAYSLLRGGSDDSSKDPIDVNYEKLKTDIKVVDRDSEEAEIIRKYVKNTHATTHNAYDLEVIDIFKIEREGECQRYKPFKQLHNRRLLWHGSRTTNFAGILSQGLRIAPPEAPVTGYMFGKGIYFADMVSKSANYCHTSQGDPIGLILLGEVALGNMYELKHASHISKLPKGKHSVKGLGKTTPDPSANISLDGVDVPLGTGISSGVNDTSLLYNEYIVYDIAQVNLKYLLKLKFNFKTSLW

[7] = target: Poly [ADP-ribose] polymerase tankyrase-2 (Homo sapiens) (UniProt Q9H2K2)
Chain of Poly [ADP-ribose] polymerase tankyrase-2 (Homo sapiens) (Q9H2K2 whole entry): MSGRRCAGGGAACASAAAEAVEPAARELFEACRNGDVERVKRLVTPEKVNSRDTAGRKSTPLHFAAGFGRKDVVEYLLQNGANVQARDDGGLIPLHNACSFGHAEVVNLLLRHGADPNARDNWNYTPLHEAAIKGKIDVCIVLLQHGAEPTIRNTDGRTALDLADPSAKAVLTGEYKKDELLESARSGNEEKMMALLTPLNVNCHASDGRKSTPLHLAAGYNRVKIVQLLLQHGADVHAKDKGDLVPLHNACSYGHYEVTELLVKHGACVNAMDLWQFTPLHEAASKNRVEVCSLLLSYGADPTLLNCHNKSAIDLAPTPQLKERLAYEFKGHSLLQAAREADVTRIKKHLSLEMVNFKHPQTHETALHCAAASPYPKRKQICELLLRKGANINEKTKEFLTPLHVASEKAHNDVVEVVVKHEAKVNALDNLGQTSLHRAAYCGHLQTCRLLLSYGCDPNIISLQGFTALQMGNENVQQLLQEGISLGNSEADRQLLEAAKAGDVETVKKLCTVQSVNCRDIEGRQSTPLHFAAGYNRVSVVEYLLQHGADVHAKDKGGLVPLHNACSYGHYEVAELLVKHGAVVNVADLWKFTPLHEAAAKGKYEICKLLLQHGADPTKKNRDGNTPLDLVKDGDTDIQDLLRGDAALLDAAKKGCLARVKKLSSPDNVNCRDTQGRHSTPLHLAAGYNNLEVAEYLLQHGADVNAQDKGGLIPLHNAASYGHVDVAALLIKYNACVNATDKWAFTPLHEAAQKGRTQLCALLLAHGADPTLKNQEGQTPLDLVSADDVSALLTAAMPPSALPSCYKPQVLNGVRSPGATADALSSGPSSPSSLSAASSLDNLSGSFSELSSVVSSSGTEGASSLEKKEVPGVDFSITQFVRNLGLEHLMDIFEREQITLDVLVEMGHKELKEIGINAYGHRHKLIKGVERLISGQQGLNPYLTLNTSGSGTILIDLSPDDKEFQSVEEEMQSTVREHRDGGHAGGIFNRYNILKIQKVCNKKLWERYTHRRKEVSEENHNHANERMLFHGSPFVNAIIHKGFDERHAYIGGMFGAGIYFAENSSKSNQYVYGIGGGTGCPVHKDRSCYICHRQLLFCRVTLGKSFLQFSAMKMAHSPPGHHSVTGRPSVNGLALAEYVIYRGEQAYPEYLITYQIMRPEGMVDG

[8] = target: Protein mono-ADP-ribosyltransferase PARP11 (Homo sapiens, UniProt Q9NR21)
Chain of Protein mono-ADP-ribosyltransferase PARP11 (Q9NR21 whole entry): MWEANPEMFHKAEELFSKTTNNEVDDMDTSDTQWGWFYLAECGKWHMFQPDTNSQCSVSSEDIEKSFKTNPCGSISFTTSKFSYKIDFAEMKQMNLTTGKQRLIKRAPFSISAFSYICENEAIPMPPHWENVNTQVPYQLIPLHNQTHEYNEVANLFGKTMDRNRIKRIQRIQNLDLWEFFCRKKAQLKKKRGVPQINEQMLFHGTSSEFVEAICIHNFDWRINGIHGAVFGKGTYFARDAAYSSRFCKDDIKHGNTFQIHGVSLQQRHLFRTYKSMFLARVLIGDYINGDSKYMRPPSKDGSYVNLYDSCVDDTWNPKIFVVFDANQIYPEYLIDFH

[9] = target: T1, Protein mono-ADP-ribosyltransferase PARP9 (Homo sapiens, UniProt Q8IXQ6); experiment: Binding affinity to PARP9 (unknown origin) assessed as apparent dissociation constant; settings: read-out: Kd(app)
[10] = target: Protein mono-ADP-ribosyltransferase PARP8 (Homo sapiens, UniProt Q8N3A8); experiment: Binding affinity to PARP8 (unknown origin) assessed as apparent dissociation constant; settings: read-out: Kd(app)
[11] = Intrinsic clearance in human hepatocytes measured per million of cells; format: ADME, cell-based, Hepatocyte; settings: read-out: CLH
[12] = Hematotoxicity in CD34+ hematopoietic stem/progenitor cells (unknown origin) assessed as reduction of cell viability treated at 0.00001 to 100 uM for 5 days by cell-tire-Glo-2.0 luminescence based assay relative to control; format: toxicity; settings: cd34-positive hematopoietic stem/progenitor cell, 120 h, dose lower 1e-05 µM, dose upper 100 µM, time 5 day
[13] = target: T1, Protein mono-ADP-ribosyltransferase PARP9
[14] = Hematotoxicity in CD34+ hematopoietic stem/progenitor cells (unknown origin) assessed as reduction of cell viability treated for 5 days by cell-tire-Glo-2.0 luminescence based assay; format: toxicity, CD34-positive hematopoietic stem/progenitor cell
[15] = Hematotoxicity in CD34+ hematopoietic stem/progenitor cells (unknown origin) assessed as remaining viable cells treated at 100 nM for 5 days by cell-tire-Glo-2.0 luminescence based assay relative to control; format: toxicity, CD34-positive hematopoietic stem/progenitor cell; settings: time 5 day, read-out: Activity
[16] = target: Protein mono-ADP-ribosyltransferase PARP12 (Homo sapiens, UniProt Q9H0J9)
[17] = target: Protein mono-ADP-ribosyltransferase TIPARP (Homo sapiens) (UniProt Q7Z3E1)
Chain of Protein mono-ADP-ribosyltransferase TIPARP (Homo sapiens) (Q7Z3E1 whole entry): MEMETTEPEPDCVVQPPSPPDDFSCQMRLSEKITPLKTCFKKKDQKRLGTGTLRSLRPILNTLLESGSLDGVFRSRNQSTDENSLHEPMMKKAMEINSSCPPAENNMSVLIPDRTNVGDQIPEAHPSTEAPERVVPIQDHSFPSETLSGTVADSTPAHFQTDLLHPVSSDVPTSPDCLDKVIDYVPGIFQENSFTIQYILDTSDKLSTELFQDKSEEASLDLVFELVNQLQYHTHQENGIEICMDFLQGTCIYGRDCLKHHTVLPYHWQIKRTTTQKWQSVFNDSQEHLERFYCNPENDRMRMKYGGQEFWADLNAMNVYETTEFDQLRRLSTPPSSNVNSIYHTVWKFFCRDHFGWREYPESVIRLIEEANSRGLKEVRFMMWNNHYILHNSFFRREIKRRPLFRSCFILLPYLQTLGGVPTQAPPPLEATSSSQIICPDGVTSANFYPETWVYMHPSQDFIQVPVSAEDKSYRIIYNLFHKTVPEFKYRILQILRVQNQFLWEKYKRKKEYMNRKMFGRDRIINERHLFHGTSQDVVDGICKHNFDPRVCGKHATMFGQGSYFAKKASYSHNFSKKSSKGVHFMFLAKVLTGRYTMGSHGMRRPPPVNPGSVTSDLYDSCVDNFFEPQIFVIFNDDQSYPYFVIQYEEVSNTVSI

[18] = Antitumor activity against patient derived explant HBCx-17 cells xenografted in mouse assessed as tumor regression administered daily at 100 mg/kg, po for 25 days relative to control; format: functional, Homo sapiens; settings: time 25 day
[19] = target: Poly [ADP-ribose] polymerase tankyrase-1 (Homo sapiens, UniProt O95271)
[20] = target: T2, Protein mono-ADP-ribosyltransferase PARP8 (Homo sapiens) (UniProt Q8N3A8)
T2 sequence (whole entry): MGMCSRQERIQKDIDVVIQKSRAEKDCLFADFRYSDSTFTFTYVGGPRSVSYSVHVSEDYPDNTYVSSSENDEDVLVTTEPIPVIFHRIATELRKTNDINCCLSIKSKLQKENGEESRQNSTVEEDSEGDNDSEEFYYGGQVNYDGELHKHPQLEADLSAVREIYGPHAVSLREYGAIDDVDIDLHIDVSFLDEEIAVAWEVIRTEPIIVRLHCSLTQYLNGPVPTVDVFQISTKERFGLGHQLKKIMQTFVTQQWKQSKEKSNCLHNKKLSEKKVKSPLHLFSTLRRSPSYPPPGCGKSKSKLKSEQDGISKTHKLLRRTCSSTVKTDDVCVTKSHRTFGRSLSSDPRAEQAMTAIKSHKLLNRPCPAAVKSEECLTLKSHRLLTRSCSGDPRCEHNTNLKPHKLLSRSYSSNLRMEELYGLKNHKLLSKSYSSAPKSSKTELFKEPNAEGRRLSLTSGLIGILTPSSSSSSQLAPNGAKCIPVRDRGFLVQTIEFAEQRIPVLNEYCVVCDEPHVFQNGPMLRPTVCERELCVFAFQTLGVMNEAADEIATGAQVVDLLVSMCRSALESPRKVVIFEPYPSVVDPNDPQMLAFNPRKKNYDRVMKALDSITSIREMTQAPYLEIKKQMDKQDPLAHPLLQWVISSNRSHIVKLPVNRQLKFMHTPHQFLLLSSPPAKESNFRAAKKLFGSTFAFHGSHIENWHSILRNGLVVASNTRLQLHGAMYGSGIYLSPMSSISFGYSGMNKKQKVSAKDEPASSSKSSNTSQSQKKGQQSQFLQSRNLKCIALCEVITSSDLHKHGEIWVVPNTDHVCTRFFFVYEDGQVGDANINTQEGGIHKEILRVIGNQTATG

[21] = target: Protein mono-ADP-ribosyltransferase PARP14 (Homo sapiens) (UniProt Q460N5)
[22] = target: Protein mono-ADP-ribosyltransferase PARP12 (Homo sapiens) (UniProt Q9H0J9)
[23] = target: Poly [ADP-ribose] polymerase tankyrase-1 (Homo sapiens) (UniProt O95271); experiment: Binding affinity to PARP5a (unknown origin) assessed as apparent dissociation constant
[24] = target: Protein mono-ADP-ribosyltransferase PARP16 (Homo sapiens, UniProt Q8N5Y8); experiment: Binding affinity to PARP16 (unknown origin) assessed as apparent dissociation constant; settings: read-out: Kd(app)
[25] = target: Protein mono-ADP-ribosyltransferase PARP3 (Homo sapiens) (UniProt Q9Y6F1); experiment: Binding affinity to PARP3 (unknown origin) assessed as apparent dissociation constant

Row | Compound | solubility [1] [µM] | microsomal CLint (in vitro [2]) [µL/min/mg] | logD (physchem) | IC50 [3] [nM] | IC50 [4] [nM] | IC50 (DLD-1; Homo sapiens, DLD-1, 168 h) [nM] | IC50 [6] [nM] | other results
1 | Cc1cnc(N2CCN(CCCc3nc4c(Cl)cccc4c(=O)[nH]3)CC2)n1C | 4 (≈ 1.6 µg/mL) | 44 | 2.3 | 1500 | 4000 | 180 | – | –
2 | Cc1cnc(N2CCN(Cc3ccc4c5c(c(=O)[nH]c4c3)CCCC5)CC2)n1C | 46 (≈ 18 µg/mL) | 57 | 3.2 | 3800 | 490 | – | – | –
3 | CCc1cc2ccc(CN3CCN(c4ccc(C(=O)NC)nc4)CC3)cc2[nH]c1=O | 9 (≈ 3.65 µg/mL) | 17 | 2.8 | 21000 | 1100 | 3 | 5 | efflux ratio (in vitro [5]): 0.7
4 | CNCc1ccc(-c2[nH]c3cc(F)cc4c3c2CCNC4=O)cc1 [RUCAPARIB] | – | – | – | – | – | 27 | – | Kd(app) [7]: Active; Kd [8]: > 10000 nM; Kd [9]: 3100 nM; Kd [10]: > 10000 nM
5 | CCc1cc2cnc(CN3CCN(c4ccc(C(=O)NC)nc4)CC3)cc2[nH]c1=O | 31 (≈ 12.6 µg/mL) | 6 | 2 | – | – | 2 | – | hepatocyte CLint [11]: < 1 µL/min/1e6 cells
6 | Cn1ncnc1[C@H]1c2n[nH]c(=O)c3cc(F)cc(c23)N[C@@H]1c1ccc(F)cc1 [TALAZOPARIB] | – | – | – | – | – | 2 | – | Kd(app) [7]: Active; Activity [12]: 1%; Kd(app) [13]: Active; IC50 at 5 days ([14]; CD34+ hematopoietic stem/progenitor cells): 27 nM; Activity ([14]; cd34-positive hematopoietic stem/progenitor cell, 120 h, DDE = dose-dependent effect, dose lower 1e-05 µM, dose upper 100 µM, time 5 day): Dde; viability at 120 h, 0.1 µM [15]: 10%; Kd [10]: 1100 nM; Kd [16]: > 10000 nM; Kd(app) [17]: Active
7 | O=C(c1cc(Cc2n[nH]c(=O)c3ccccc23)ccc1F)N1CCN(C(=O)C2CC2)CC1 [OLAPARIB] | – | – | – | – | – | 42 | – | Activity [18]: 81%
8 | Cc1cnc(N2CCN(Cc3ccc4c5c(c(=O)[nH]c4c3)CCCN5)CC2)n1C | 136 (≈ 53.4 µg/mL) | 15 | 2.2 | 30000 | 1100 | 52 | 51 | efflux ratio (in vitro [5]): 3.6
9 | CCc1cc2ccc(CN3CCN(c4cnc(C(=O)NC)cn4)CC3)cc2[nH]c1=O | 2 (≈ 0.813 µg/mL) | 18 | 2.7 | > 40000 | 5900 | 4400 | – | –
10 | Cc1cnc(N2CCN(Cc3ccc4c(c3)[nH]c(=O)c3ncccc34)CC2)n1C | 383 (≈ 149 µg/mL) | 9 | 1.7 | > 40000 | 28000 | 121 | – | –
11 | NC(=O)c1cc(F)cc2c1C(=O)N(C1CCN(C3CCC(F)(F)CC3)CC1)C2 | – | – | – | – | – | 2000 | – | IC50 [19]: > 100000 nM
12 | CCc1cc2ccc(CN3CCN(c4cnc(C(=O)NC)nc4)CC3)cc2[nH]c1=O | 58 (≈ 23.6 µg/mL) | < 3 | 1.8 | > 40000 | 2400 | 2500 | 8 | efflux ratio (in vitro [5]): 14
13 | O=c1[nH]c(CCCN2CC=C(c3ccc(F)cc3)CC2)nc2c(Cl)cccc12 | 56 (≈ 22.3 µg/mL) | 35 | 3.8 | 2600 | 20000 | > 23000 | 65 | –
14 | CCc1cc2ccc(CN3CCN(c4ccc(C(=O)NC)cc4)CC3)cc2[nH]c1=O | < 0.25 | 11 | 3 | 8300 | 3900 | 7 | – | –
15 | CCc1nc2ccc(CN3CCN(c4ccc(C(=O)NC)nc4)CC3)cc2[nH]c1=O | 12 (≈ 4.88 µg/mL) | 7 | 2.4 | – | 4900 | 4 | – | hepatocyte CLint [11]: 1.9 µL/min/1e6 cells; efflux ratio (in vitro [5]): 1
16 | Cc1cnc(N2CCN(Cc3ccc4c(c3)[nH]c(=O)c3ccccc34)CC2)n1C | < 12 | 26 | 3.3 | 3900 | 600 | – | – | –
17 | CCc1cc2ccc(CN3CCN(c4ccc(F)cc4F)CC3)cc2[nH]c1=O | 0.2 (≈ 0.0767 µg/mL) | 16 | 4.2 | 2300 | > 26000 | 1 | 8 | –
18 | CCc1cc2ccc(CN3CCN(c4ccc(C(=O)NC)nn4)CC3)cc2[nH]c1=O | 30 (≈ 12.2 µg/mL) | 14 | 2.4 | > 40000 | 7400 | 294 | 4 | efflux ratio (in vitro [5]): 1.5
19 | O=c1[nH]c(CCCN2CCN(c3ccc(F)cc3F)CC2)nc2c(Cl)cccc12 | 6 (≈ 2.51 µg/mL) | 58 | 3.9 | 1400 | 22000 | – | – | –
20 | Cc1cnc(N2CCN(Cc3ccc4c(c3)[nH]c(=O)c3cccnc34)CC2)n1C | 15 (≈ 5.83 µg/mL) | 30 | 2.5 | 11000 | 9100 | 15 | 30 | efflux ratio (in vitro [5]): 1.3
21 | Cc1cnc(N2CCN(Cc3ccc4c5c(c(=O)[nH]c4c3)COCC5)CC2)n1C | 158 (≈ 62.2 µg/mL) | 8 | 1.9 | > 40000 | 6600 | – | 38 | efflux ratio (in vitro [5]): 10
22 | C[C@]1(c2nc3c(C(N)=O)cccc3[nH]2)CCCN1 [VELIPARIB] | – | – | – | – | – | – | – | Kd(app) [20]: Active; Kd(app) [13]: Active; Kd(app) [21]: Active; Kd(app) [22]: Active; Kd(app) [17]: Active; IC50 (DLD-1; dld-1): 750 nM
23 | NC(=O)c1cccc2cn(-c3ccc([C@@H]4CCCNC4)cc3)nc12 [NIRAPARIB] | – | – | – | – | – | 149 | – | Kd(app) [23]: Active; Kd [8]: > 10000 nM; Kd(app) [20]: Active; Kd [24]: > 10000 nM; Kd(app) [13]: Active; Kd(app) [25]: Active
24 | CCc1cc2ccc(CN3CCN(c4ncc(C)n4C)CC3)cc2[nH]c1=O | 224 (≈ 81.9 µg/mL) | 25 | 2.7 | 12000 | 4200 | 3 | – | –
